These results are taken from US9801380B2, “Low VOC gibberellin formulations” (Valent BioSciences Corporation, priority 2013, dated 2017).

Molecules are shown by their SMILES.

This series can be described thus: Stability tests: observation for solubility after mixing. Conditions: 5.95% GA3 TGAI.

Description: The stability tests were performed as follows. The solvent was charged in a 150 mL glass beaker containing a magnetic stir bar. The solvent was warmed on a hot plate while stirring. The polysorbate surfactant was charged when the solvent temperature reached 30 to 38 degrees Celsius. The formulations were mixed until they were solubilized (1 to 4 minutes). Then the GA3 TGAI was added under stirring and the temperature was raised to 38 to 41 degrees Celsius. The heat was discontinued and the formulations were mixed for 30 to 50 minutes. The formulations were then observed for solubility.

In the case of `C=C1C[C@]23C[C@@]1(O)CC[C@H]2[C@@]12C=C[C@H](O)[C@@](C)(C(=O)O1)[C@H]2[C@@H]3C(=O)O` [GA3, gibberellic acid], the “Solubility of GA3 in the formulation” value by setting is: (Formulation B (triethyl citrate)) “not soluble”; (Formulations A and D (PEG 300, PEG 400)) “soluble”.
